The values below come from patent US20230233569A1 (Revolution Medicines, Inc., priority 2020, published 2023).

Holding throughout (assay): Ras-Raf disruption / FRET / MOA assay (BRAF RBD)
What all share (format): biochemical

Test [1] deals with KRAS G12C (Homo sapiens, UniProt P01116+P62937, G12C). Conditions: Ras-Raf disruption, with Cyclophilin A; read-out: KRAS G12C FRET data IC50. The procedure, abridged:
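His6-K-Ras G12C-GMPPNP (12.5 nM), GST-BRAF RBD (50 nM) and tagless Cyclophilin A (25 μM) incubated 3 h at 25 °C with compound (10-point 3-fold series from 30 μM), pH 7.3 HEPES buffer. Anti-His Eu/anti-GST APC added for 1.5 h; decreased TR-FRET ratio vs DMSO gives IC50.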

In test [2] the target is NRAS Q61K (Homo sapiens, UniProt P01111+P62937, Q61K). The note with it: NRAS Q61K; read-out: NRAS Q61K FRET data IC50. The procedure, abridged:
(§1)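 TR-FRET in 25 mM HEPES pH 7.3, 100 mM NaCl, 5 mM MgCl2, 0.1% BSA, 0.002% Tween20 with 25 μM Cyclophilin A, 12.5 nM His6-Ras-GMPPNP, 50 nM GST-BRAF RBD; compound 10-point 3-fold series from 30 μM. After 3 h at 25 °C, Eu anti-His/APC anti-GST added for 1.5 h; IC50 from ratio decrease versus DMSO.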

The target in test [3] is NRAS Q61R (Homo sapiens, UniProt P01111+P62937, Q61R). Conditions: NRAS Q61R; read-out: NRAS Q61R FRET data IC50. The procedure, abridged:
as §1

The target in test [4] is KRAS G12D (Homo sapiens, UniProt P01116+P62937, G12D). The note with it: Ras-Raf disruption, with Cyclophilin A; read-out: KRAS G12D FRET data IC50. The procedure, abridged: as §1
The target in test [5] is KRAS G12V (Homo sapiens, UniProt P01116+P62937, G12V). The note with it: Ras-Raf disruption, with Cyclophilin A; read-out: KRAS G12V FRET data IC50. The procedure, abridged: as §1
Test [6] deals with KRAS Q61H (Homo sapiens, UniProt P01116+P62937, Q61H). The note with it: KRAS Q61H; read-out: KRAS Q61H FRET data IC50. Summed up:
as §1

Test [7] concerns the target KRAS WT (Homo sapiens, UniProt P01116+P62937). The note with it: Ras-Raf disruption, with Cyclophilin A; read-out: KRAS WT FRET data IC50. The procedure, abridged: as §1
Test [8] concerns the target KRAS G13D (Homo sapiens, UniProt P01116+P62937, G13D). Conditions: Ras-Raf disruption, with Cyclophilin A; read-out: KRAS G13D FRET data IC50. Summed up:
as §1

Test [9] deals with KRAS G13C (Homo sapiens, UniProt P01116+P62937, G13C). The note with it: Ras-Raf disruption, with Cyclophilin A; read-out: KRAS G13C FRET data IC50. Summed up:
as §1

For test [10], the target named is NRAS WT (Homo sapiens, UniProt P01111+P62937). The note with it: NRAS WT; read-out: NRAS WT FRET data IC50. The procedure, abridged:
as §1

The target in test [11] is NRAS G12C (Homo sapiens, UniProt P01111+P62937, G12C). The note with it: NRAS G12C; read-out: NRAS G12C FRET data IC50. Summed up:
as §1

Test [12] has as its target KRAS G12S (Homo sapiens, UniProt P01116+P62937, G12S). The note with it: Ras-Raf disruption, with Cyclophilin A; read-out: KRAS G12S FRET data IC50. The procedure, abridged:
as §1

SMILES strings stand for the structures.

Sequence of KRAS G12C (P01116 1-169 isoform P01116-2 G12C limits assumed): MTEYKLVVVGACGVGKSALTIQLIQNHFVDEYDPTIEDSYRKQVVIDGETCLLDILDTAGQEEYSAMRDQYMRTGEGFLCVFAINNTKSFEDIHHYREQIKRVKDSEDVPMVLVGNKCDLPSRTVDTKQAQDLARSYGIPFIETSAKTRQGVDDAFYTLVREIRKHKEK
Sequence of KRAS G12C (P62937 whole entry): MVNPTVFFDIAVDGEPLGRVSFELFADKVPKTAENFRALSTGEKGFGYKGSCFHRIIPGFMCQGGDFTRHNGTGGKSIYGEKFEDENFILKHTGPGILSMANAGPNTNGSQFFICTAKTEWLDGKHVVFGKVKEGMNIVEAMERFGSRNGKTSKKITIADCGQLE
Sequence of KRAS Q61H (P01116 1-169 isoform P01116-2 Q61H limits assumed): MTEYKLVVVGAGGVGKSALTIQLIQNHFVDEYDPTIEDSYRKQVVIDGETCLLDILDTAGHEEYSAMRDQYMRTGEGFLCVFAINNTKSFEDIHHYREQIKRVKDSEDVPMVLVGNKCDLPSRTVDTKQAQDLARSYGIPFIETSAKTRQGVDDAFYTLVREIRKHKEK
Sequence of KRAS Q61H (P62937 whole entry): as the sequence (P62937 whole entry) above
Sequence of KRAS G13C (P01116 1-169 isoform P01116-2 G13C limits assumed): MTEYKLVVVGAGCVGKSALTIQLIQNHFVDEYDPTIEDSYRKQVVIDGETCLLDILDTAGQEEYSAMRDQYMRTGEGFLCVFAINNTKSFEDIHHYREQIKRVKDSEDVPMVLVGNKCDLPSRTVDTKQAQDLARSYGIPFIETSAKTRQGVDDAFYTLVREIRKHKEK
Sequence of KRAS G13C (P62937 whole entry): as the sequence (P62937 whole entry) above
Sequence of KRAS G13D (P01116 1-169 isoform P01116-2 G13D limits assumed): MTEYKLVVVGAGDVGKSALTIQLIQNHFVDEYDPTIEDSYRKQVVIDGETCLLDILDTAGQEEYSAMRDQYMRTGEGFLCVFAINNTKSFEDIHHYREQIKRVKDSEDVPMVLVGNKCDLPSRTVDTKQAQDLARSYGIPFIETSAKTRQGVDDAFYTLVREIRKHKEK
Sequence of KRAS G13D (P62937 whole entry): as the sequence (P62937 whole entry) above
Sequence of KRAS WT (P01116 1-169 isoform P01116-2 limits assumed): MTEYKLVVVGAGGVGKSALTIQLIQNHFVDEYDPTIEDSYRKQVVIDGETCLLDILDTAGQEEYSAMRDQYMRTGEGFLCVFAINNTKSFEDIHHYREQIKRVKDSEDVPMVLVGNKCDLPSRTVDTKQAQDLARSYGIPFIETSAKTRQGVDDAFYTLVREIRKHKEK
Sequence of KRAS WT (P62937 whole entry): as the sequence (P62937 whole entry) above
Sequence of NRAS Q61K (P01111 whole entry Q61K): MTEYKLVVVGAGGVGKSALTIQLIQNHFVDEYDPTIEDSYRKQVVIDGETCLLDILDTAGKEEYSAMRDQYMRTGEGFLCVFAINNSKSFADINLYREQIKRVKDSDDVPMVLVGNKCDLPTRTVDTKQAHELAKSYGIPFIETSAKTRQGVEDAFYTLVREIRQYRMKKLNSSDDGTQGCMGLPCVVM
Sequence of NRAS Q61K (P62937 whole entry): as the sequence (P62937 whole entry) above
Sequence of KRAS G12V (P01116 1-169 isoform P01116-2 G12V limits assumed): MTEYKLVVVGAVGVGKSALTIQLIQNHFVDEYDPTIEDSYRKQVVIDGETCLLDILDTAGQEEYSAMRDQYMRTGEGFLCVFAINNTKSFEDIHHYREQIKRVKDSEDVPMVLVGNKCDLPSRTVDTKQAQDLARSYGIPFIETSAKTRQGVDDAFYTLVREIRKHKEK
Sequence of KRAS G12V (P62937 whole entry): as the sequence (P62937 whole entry) above
Sequence of KRAS G12D (P01116 1-169 isoform P01116-2 G12D limits assumed): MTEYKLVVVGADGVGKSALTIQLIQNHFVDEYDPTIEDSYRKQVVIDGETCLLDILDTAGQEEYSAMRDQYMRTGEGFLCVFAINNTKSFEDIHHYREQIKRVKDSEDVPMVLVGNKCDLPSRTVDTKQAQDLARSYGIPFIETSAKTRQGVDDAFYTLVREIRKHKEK
Sequence of KRAS G12D (P62937 whole entry): as the sequence (P62937 whole entry) above
Sequence of NRAS WT (P01111 whole entry): as the sequence (P01111 whole entry Q61K) above, with K61Q counted along it
Sequence of NRAS WT (P62937 whole entry): as the sequence (P62937 whole entry) above
Sequence of KRAS G12S (P01116 1-169 isoform P01116-2 G12S limits assumed): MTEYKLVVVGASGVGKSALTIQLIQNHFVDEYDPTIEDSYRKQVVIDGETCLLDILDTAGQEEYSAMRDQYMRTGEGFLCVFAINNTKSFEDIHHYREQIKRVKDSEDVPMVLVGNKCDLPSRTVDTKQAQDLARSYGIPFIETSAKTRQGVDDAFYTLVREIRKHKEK
Sequence of KRAS G12S (P62937 whole entry): as the sequence (P62937 whole entry) above
Sequence of NRAS G12C (P01111 whole entry G12C): as the sequence (P01111 whole entry Q61K) above, with G12C, K61Q counted along it
Sequence of NRAS G12C (P62937 whole entry): as the sequence (P62937 whole entry) above
Sequence of NRAS Q61R (P01111 whole entry Q61R): as the sequence (P01111 whole entry Q61K) above, with K61R counted along it
Sequence of NRAS Q61R (P62937 whole entry): as the sequence (P62937 whole entry) above

Turning to `CCn1c(-c2cccnc2[C@H](C)OC)c2c3cc(ccc31)-c1cc(O)cc(c1)C[C@H](NC(=O)[C@H](C(C)C)N(C)C(=O)CN(C)C(=O)[C@H]1C[C@@H]3N[C@@H]3C1)C(=O)N1CCC[C@H](N1)C(=O)OCC(C)(C)C2` (atropisomer, axis not shown) [Example 285], the IC50 was 10 to 100 nM in test [1]; 100 to 1000 nM in test [2]; 100 to 1000 nM in [3]; 10 to 100 nM in test [4]; 10 to 100 nM in test [5]; 10 to 100 nM in test [6]. The IC50 is 10 to 100 nM in [7]; 10 to 100 nM in test [8]; less than 10 nM in [9]; 10 to 100 nM in [10]; 10 to 100 nM in test [11]; 10 to 100 nM in [12].

On to `CCn1c(-c2cccnc2[C@H](C)OC)c2c3cc(ccc31)-c1cc(O)cc(c1)C[C@H](NC(=O)[C@H](C(C)C)N(C)C(=O)[C@H]1C[C@@H]3N[C@@H]3C1)C(=O)N1CCC[C@H](N1)C(=O)OCC(C)(C)C2` (atropisomer, axis not shown) [Example 286], for which the 50% inhibitory concentration (IC50) was 100 to 1000 nM in [1]; 100 to 1000 nM in test [2]; 100 to 1000 nM in [3]; 100 to 1000 nM in test [4]; 100 to 1000 nM in [5]; 10 to 100 nM in [6]. The half-inhibitory concentration (IC50) in test [7] was 100 to 1000 nM; in test [8] it was 10 to 100 nM; in [9], 10 to 100 nM; in [10] it was 100 to 1000 nM; in test [11] it was 100 to 1000 nM; in test [12] it was 100 to 1000 nM.

In the case of `CCn1c(-c2cccnc2[C@H](C)OC)c2c3cc(ccc31)-c1csc(n1)C[C@H](NC(=O)[C@H](C(C)C)N(C)C(=O)N1CCC[C@H](N(C)C(=O)[C@@H]3CN3)C1)C(=O)N1CCC[C@H](N1)C(=O)OCC(C)(C)C2` (atropisomer, axis not shown) [Example 292], the IC50 in test [1] lay in the range of 100 to 1000 nM; in test [2] it was 100 to 1000 nM; in [3], 100 to 1000 nM; in [4], 1000 to 10000 nM; in test [5], 100 to 1000 nM; in test [6] it was 100 to 1000 nM. The IC50 in test [7] was 100 to 1000 nM; in test [8] it was 1000 to 10000 nM; in test [9], 100 to 1000 nM; in test [10], 100 to 1000 nM; in [11] it was 100 to 1000 nM; in test [12], 100 to 1000 nM.

In the case of `CCn1c(-c2cccnc2[C@H](C)OC)c2c3cc(ccc31)-c1csc(n1)C[C@H](NC(=O)[C@H](C(C)C)N(C)C(=O)N(C)CC1CN(C(=O)[C@H]3CN3)C1)C(=O)N1CCC[C@H](N1)C(=O)OCC(C)(C)C2` (atropisomer, axis not shown) [Example 293], the IC50 was 10 to 100 nM in [1]; 10 to 100 nM in test [2]; 100 to 1000 nM in test [3]; 100 to 1000 nM in test [4]; 100 to 1000 nM in [5]; 10 to 100 nM in test [6]. For the same compound, the 50% inhibitory concentration (IC50) in test [7] lay in the range of 100 to 1000 nM; in test [8], 100 to 1000 nM; in [9], 100 to 1000 nM; in [10], 100 to 1000 nM; in test [11], 10 to 100 nM; in [12] it was 100 to 1000 nM.

Consider `CCn1c(-c2cccnc2[C@H](C)OC)c2c3cc(ccc31)-c1csc(n1)C[C@H](NC(=O)[C@H](C(C)C)N(C)C(=O)N(C)CC1CN(C(=O)[C@@H]3CN3)C1)C(=O)N1CCC[C@H](N1)C(=O)OCC(C)(C)C2` (atropisomer, axis not shown) [Example 294], for which the IC50 in test [1] is 10 to 100 nM; in test [2], 10 to 100 nM; in test [3] it was 100 to 1000 nM; in test [4], 100 to 1000 nM; in [5] it was 100 to 1000 nM; in test [6], 10 to 100 nM. For the same compound, the IC50 lay within 100 to 1000 nM in test [7]; 100 to 1000 nM in [8]; 100 to 1000 nM in test [9]; 100 to 1000 nM in [10]; 10 to 100 nM in test [11]; 100 to 1000 nM in test [12].

As to `CCn1c(-c2cccnc2[C@H](C)OC)c2c3cc(ccc31)-c1csc(n1)C[C@H](NC(=O)[C@H](C(C)C)N(C)C(=O)N(C)[C@H]1CCCN(C(=O)[C@H]3CN3)C1)C(=O)N1CCC[C@H](N1)C(=O)OCC(C)(C)C2` (atropisomer, axis not shown) [Example 295], the IC50 in test [1] lay within 100 to 1000 nM; in test [2] it was 100 to 1000 nM; in test [3], 1000 to 10000 nM; in test [4], 1000 to 10000 nM; in [5], 1000 to 10000 nM; in [6], 100 to 1000 nM. Also, the IC50 fell in the range of 100 to 1000 nM in test [7]; 1000 to 10000 nM in test [8]; 1000 to 10000 nM in test [9]; 100 to 1000 nM in test [10]; 100 to 1000 nM in test [11]; 1000 to 10000 nM in test [12].

With `CCn1c(-c2cccnc2[C@H](C)OC)c2c3cc(ccc31)-c1csc(n1)C[C@H](NC(=O)[C@H](C(C)C)N(C)C(=O)N(C)[C@H]1CCN(C(=O)[C@H]3CN3)C1)C(=O)N1CCC[C@H](N1)C(=O)OCC(C)(C)C2` (atropisomer, axis not shown) [Example 296], the IC50 lay in the range of 100 to 1000 nM in [1]; 100 to 1000 nM in test [2]; 100 to 1000 nM in [3]; 1000 to 10000 nM in test [4]; 1000 to 10000 nM in test [5]; 100 to 1000 nM in test [6]. Moreover, the IC50 in [7] was 100 to 1000 nM; in test [8] it was 1000 to 10000 nM; in test [9], 100 to 1000 nM; in test [10], 100 to 1000 nM; in test [11], 100 to 1000 nM; in [12] it was 100 to 1000 nM.

Take `CCn1c(-c2cccnc2[C@H](C)OC)c2c3cc(ccc31)-c1csc(n1)C[C@H](NC(=O)[C@H](C(C)C)N(C)C(=O)N(C)[C@H]1CCN(C(=O)[C@@H]3CN3)C1)C(=O)N1CCC[C@H](N1)C(=O)OCC(C)(C)C2` (atropisomer, axis not shown) [Example 310]: the IC50 was in the range of 100 to 1000 nM in test [1]; 100 to 1000 nM in [2]; 100 to 1000 nM in test [3]; 1000 to 10000 nM in test [4]; 100 to 1000 nM in [5]; 100 to 1000 nM in test [6]. Moreover, the IC50 in test [7] was 100 to 1000 nM; in test [8], 1000 to 10000 nM; in test [9], 100 to 1000 nM; in test [10], 100 to 1000 nM; in test [11] it was 100 to 1000 nM; in [12], 100 to 1000 nM.

As to `CCn1c(-c2cccnc2[C@H](C)OC)c2c3cc(ccc31)-c1cc(O)cc(c1)C[C@H](NC(=O)[C@H](C(C)C)N(C)C(=O)[C@]1(F)CCN(C(=O)[C@H]3CN3)C1)C(=O)N1CCC[C@H](N1)C(=O)OCC(C)(C)C2` (atropisomer, axis not shown) [Example 311], the half-inhibitory concentration (IC50) is less than 10 nM in test [1]; 100 to 1000 nM in [2]; 100 to 1000 nM in test [3]; 100 to 1000 nM in [4]; 100 to 1000 nM in test [5]; 10 to 100 nM in test [6]. Besides, the IC50 in test [7] was 100 to 1000 nM; in test [8], 100 to 1000 nM; in test [9], 10 to 100 nM; in test [10] it was 10 to 100 nM; in [11] it was less than 10 nM; in test [12], 100 to 1000 nM.

Regarding `CCn1c(-c2cccnc2[C@H](C)OC)c2c3cc(ccc31)-c1csc(n1)C[C@H](NC(=O)[C@H](C(C)C)N(C)C(=O)N1CCC(CN(C)C(=O)[C@H]3CN3)CC1)C(=O)N1CCC[C@H](N1)C(=O)OCC(C)(C)C2` (atropisomer, axis not shown) [Example 326], the IC50 was 10 to 100 nM in [1]; 10 to 100 nM in test [2]; 10 to 100 nM in test [3]; 100 to 1000 nM in test [4]; 10 to 100 nM in test [5]; 10 to 100 nM in test [6]. The IC50 in test [7] was 10 to 100 nM; in [8] it was 100 to 1000 nM; in test [9] it was 10 to 100 nM; in test [10] it was 10 to 100 nM; in test [11], 10 to 100 nM; in test [12], 10 to 100 nM.

The term IC50 denotes the point on the concentration scale where inhibition reaches its midpoint.
